# According to article PMC5076878 (Bioorganic & medicinal chemistry letters, 2016):
# Where “and” joins values, the source holds several entries; their conditions need not be identical. Equal entries are not always repeated.
# Molecular target: T1, human LAT1 (Homo sapiens, UniProt Q01650)
# Experiment: not given
# Assay type: cell-based
# Details: compound at 200 μM; pre-loaded HEK-hLAT1 cells; at least triplicate
# T1 sequence (Q01650 whole entry): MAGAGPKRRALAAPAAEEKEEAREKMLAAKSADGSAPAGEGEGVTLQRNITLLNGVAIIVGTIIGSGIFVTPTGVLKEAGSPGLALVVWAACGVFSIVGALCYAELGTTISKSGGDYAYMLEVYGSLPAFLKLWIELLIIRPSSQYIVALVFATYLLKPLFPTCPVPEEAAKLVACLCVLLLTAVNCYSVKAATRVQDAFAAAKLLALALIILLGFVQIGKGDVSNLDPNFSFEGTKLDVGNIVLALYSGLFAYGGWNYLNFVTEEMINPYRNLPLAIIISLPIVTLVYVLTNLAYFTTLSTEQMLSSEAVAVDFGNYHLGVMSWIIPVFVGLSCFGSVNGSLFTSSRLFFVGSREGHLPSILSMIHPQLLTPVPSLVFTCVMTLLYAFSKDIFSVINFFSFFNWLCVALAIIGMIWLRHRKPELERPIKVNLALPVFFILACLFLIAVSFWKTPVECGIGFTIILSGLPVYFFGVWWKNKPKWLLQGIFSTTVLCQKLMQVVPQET
# T1 sequence (P08195 102-630 partner): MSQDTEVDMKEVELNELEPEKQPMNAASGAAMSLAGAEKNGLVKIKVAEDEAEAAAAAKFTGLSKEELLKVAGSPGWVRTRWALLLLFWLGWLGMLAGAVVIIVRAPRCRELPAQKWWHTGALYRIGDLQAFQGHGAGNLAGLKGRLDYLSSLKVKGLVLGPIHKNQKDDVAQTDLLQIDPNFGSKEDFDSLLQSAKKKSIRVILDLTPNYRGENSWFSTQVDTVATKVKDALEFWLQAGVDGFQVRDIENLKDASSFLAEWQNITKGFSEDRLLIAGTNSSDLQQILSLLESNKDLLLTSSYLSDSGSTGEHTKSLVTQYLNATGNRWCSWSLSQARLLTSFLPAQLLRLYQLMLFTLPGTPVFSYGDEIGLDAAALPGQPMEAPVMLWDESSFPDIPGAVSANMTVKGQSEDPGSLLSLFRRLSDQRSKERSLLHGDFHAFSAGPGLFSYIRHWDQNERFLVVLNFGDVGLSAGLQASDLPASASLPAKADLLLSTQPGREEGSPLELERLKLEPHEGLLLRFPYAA
row,Efflux Rate of [3H]-gabapentin,Structure (SMILES)
1,3.6 fmol/min and 3.6 ± 0.7 fmol/min,"N[C@@H](Cc1ccccc1)C(=O)O [Compound 1a, phenylalanine, reference compound]"
2,2.5 ± 0.1 fmol/min,"CC[C@H](C)[C@H](N)C(=O)O [Compound 1f, isoleucine, reference compound]"
3,2.4 ± 0.1 fmol/min,"CSCC[C@H](N)C(=O)O [Compound 1g, methionine, reference compound]"
4,2.1 fmol/min and 2.1 ± 0.2 fmol/min,CONC(=O)[C@@H](N)CC(C)C.Cl [Compound 9e]
5,0.61 ± 0.06 fmol/min,CS(=O)(=O)NC(=O)[C@@H](N)Cc1ccccc1 [Compound 10a]
6,0.63 ± 0.03 fmol/min,CS(=O)(=O)NC(=O)[C@@H](N)Cc1ccc(O)cc1 [Compound 10b]
7,1.0 ± 0.1 fmol/min,N[C@@H](Cc1ccc(O)cc1)C(=O)NO [Compound 12b]
8,1.0 ± 0.1 fmol/min,N[C@@H](Cc1c[nH]c2ccccc12)C(=O)NO [Compound 12d]
9,1.5 fmol/min and 1.5 ± 0.1 fmol/min,CC(C)C[C@H](N)C(=O)NO.Cl [Compound 12e]
10,1.5 fmol/min and 1.5 ± 0.2 fmol/min,CC[C@H](C)[C@H](N)C(=O)NO.Cl [Compound 12f]
11,1.1 ± 0.01 fmol/min,CSCC[C@H](N)C(=O)NO.Cl [Compound 12g]
12,0.70 ± 0.1 fmol/min,NCC(=O)NO [Compound 12h]
13,0.69 fmol/min and 0.69 ± 0.01 fmol/min,"CC(C)C[C@H](N)C(N)=O.Cl [Compound 13e, leucinamide]"

row,Structure (SMILES),Efflux Rate of [3H]-gabapentin
1,"N[C@@H](Cc1c[nH]c2ccccc12)C(=O)O [Compound 1d, tryptophan, reference compound]",1.6 ± 0.3 fmol/min
2,"N=C(N)NCCC[C@H](N)C(=O)O [Compound 1i, reference compound]",0.75 ± 0.1 fmol/min
3,N[C@@H](Cc1ccccc1)c1nnn[nH]1 [Compound 11],0.61 ± 0.01 fmol/min

# Molecular target: T1, human LAT1
# Experiment: cis-inhibition assay: inhibition of [3H]-gabapentin uptake into HEK-hLAT1 cells
# Assay type: cell-based
# Details: read-out: % Inhibition of [3H]-gabapentin uptake
row,Structure (SMILES),inhibition at 200 µM [%]
1,"N[C@@H](Cc1ccccc1)C(=O)O [Compound 1a, phenylalanine, reference compound]",85 ± 0.6
2,"N[C@@H](Cc1ccc(O)cc1)C(=O)O [Compound 1b, tyrosine]",68 ± 0.5
3,"N[C@@H](Cc1c[nH]c2ccccc12)C(=O)O [Compound 1d, tryptophan, reference compound]",79 ± 0.6
4,"N=C(N)NCCC[C@H](N)C(=O)O [Compound 1i, reference compound]",49 ± 2
